According to patent publication US10183936B2, “Hepatitis B core protein allosteric modulators” (priority 2014, dated 2019):

Assays:
[1] = test system: HBV viral production in AD38 cells; test: Viral load production in AD38 cells by quantitative PCR of the HBV core sequence in supernatant; format: cell-based; details: 10 μM compound, 6 days at 37° C., viral load in supernatant compared against DMSO control wells; for activity at 10 µM: Hepatitis B virus, 144 h, read-out: AD38 Viral Load (CpAM/DMSO %) at 10 μM
Procedure, shortened: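 AD38 cells seeded at 50,000/well, treated 6 days at 37° C with compound added as 10× solution in 10% DMSO. HBV core sequence in clarified supernatant quantified by TaqMan qPCR against known standards; viral load compared with DMSO control wells.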

[2] = test system: AD38 cells; test: Viability of AD38 cells (Promega CellTiter-Glo) at the end of compound treatment; format: cell-based; details: 10 μM compound, 6 days, luminescence normalized against DMSO control wells (controls being 100%)
Procedure, shortened: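 AD38 cells seeded at 50,000/well received compound from a 10× solution in 10% DMSO and were incubated 6 days at 37° C. Viability was then read by CellTiter-Glo luminescence in tetracycline-free medium with 2% FBS and 1% DMSO, normalized to DMSO control wells (100%) and reported as percent viability.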

Row | Compound | activity at 10 µM [1] [%] | AD38 Viability Normalized Result (CPAM/DMSO %) at 10 μM [2] [%] | AD38 Viral Load (CpAM/DMSO %) at 10 μM [1] [%]
1 | O=C(NC[C@@H](C(=O)O)c1ccccc1)c1ccc2c(c1)NC(=O)c1ccccc1S2 [Compound 1269, (S)-3-(11-oxo-10, 11-dihydrodibenzo [b,f] [1,4]thiazepine-8-carboxamido)-2-phenylpropanoic acid] | 63 | 107 | –
2 | O=C(NCCc1cc[nH]n1)c1ccc2c(c1)NC(=O)c1ccccc1S2 [Compound 1270] | 1 | 94 | –
3 | COc1ccc2c(c1)Sc1ccc(C(=O)NCCC3CCCCC3)cc1NC2=O [Compound 1271] | 6 | 100 | –
4 | COc1ccc2c(c1)C(=O)Nc1cc(C(=O)NCCC3CCCCC3)ccc1S2 [Compound 1272] | 24 | 102 | –
5 | Cc1ccc2c(c1)Sc1ccc(C(=O)NCCC3CCCCC3)cc1NC2=O [Compound 1273] | 6 | 96 | –
6 | Cc1ccc2c(c1)C(=O)Nc1cc(C(=O)NCCC3CCCCC3)ccc1S2 [Compound 1274] | 11 | 88 | –
7 | Cc1cc2c(cc1C(=O)NCCC1CCCCC1)NC(=O)c1ccccc1S2 [Compound 1275] | 3 | 93 | –
8 | NC(=O)c1ccc2c(c1)Sc1ccc(C(=O)NCCC3CCCCC3)cc1NC2=O [Compound 1276] | 24 | 89 | –
9 | CN(C)C(=O)c1ccc2c(c1)Sc1ccc(C(=O)NCCC3CCCCC3)cc1NC2=O [Compound 1278, N-(2-cyclohexylethyl)-N^3,N^3-dimethyl-11-oxo-10, 11-dihydrodibenzo [b,f] [1,4] thiazepine-3,8-dicarboxamide] | – | 88 | 3
10 | NC(=O)c1ccc2c(c1)Sc1ccc(C(=O)NCCc3ccccc3)cc1NC2=O [Compound 1279] | 55 | 84 | –
11 | CNC(=O)c1ccc2c(c1)Sc1ccc(C(=O)NCCc3ccccc3)cc1NC2=O [Compound 1280, N^3-methyl-11-oxo-N^8-phenethyl-10, 11-dihydrodibenzo [b,f] [1,4] thiazepine-3,8-dicarboxamide] | 74 | 94 | –
12 | CN(C)C(=O)c1ccc2c(c1)Sc1ccc(C(=O)NCCc3ccccc3)cc1NC2=O [Compound 1281, N^3,N^3-dimethyl-11-oxo-N^8-phenethyl-10, 11-dihydrodibenzo [b,f] [1,4] thiazepine-3,8-dicarboxamide] | 29 | 86 | –
13 | O=C(O)c1ccc2c(c1)Sc1ccc(C(=O)NCCC3CCCCC3)cc1NC2=O [Compound 1282, 8-((2-cyclohexylethyl)carbamoyl)-11-oxo-10, 11-dihydrodibenzo [b, f] [1,4] thiazepine-3-carboxylic acid] | 102 | 105 | –
14 | CCc1cccc(CNC(=O)c2ccc3c(c2)NC(=O)c2ccccc2S3)c1 [Compound 1283] | 1 | 97 | –
15 | O=C(NCCC1CCCCC1)c1ccc2c(c1)NC(=O)c1cc(F)ccc1S2 [Compound 1285] | 3 | 108 | –
16 | Cc1cc(C(=O)NCCC2CCCCC2)cc2c1Sc1ccccc1C(=O)N2 [Compound 1286] | 36 | 114 | –
17 | COc1cc2c(cc1C(=O)NCCC1CCCCC1)NC(=O)c1ccccc1S2 [Compound 1287] | 11 | 96 | –
18 | O=C1Nc2cc(S(=O)(=O)NCCc3ccccc3)ccc2Sc2ccccc21 [Compound 1289, 11-oxo-N-phenethyl-10, 11-dihydrodibenzo [b,f] [1,4] thiazepine-8-sulfonamide] | 40 | 96 | –
19 | O=C(NCCc1cncnc1)c1ccc2c(c1)NC(=O)c1ccccc1S2 [Compound 1290] | 33 | 94 | –
20 | O=C(NCCc1ccc(-c2cnn[nH]2)cc1)c1ccc2c(c1)NC(=O)c1ccccc1S2 [Compound 1291] | 1 | 102 | –
21 | O=C(NCc1cncnc1)c1ccc2c(c1)NC(=O)c1cc(F)ccc1S2 [Compound 1308] | 1 | 99 | –
22 | O=C(NCc1cncs1)c1ccc2c(c1)NC(=O)c1cc(F)ccc1S2 [Compound 1309] | 1 | 107 | –
23 | O=C(NCCc1ccccn1)c1ccc2c(c1)NC(=O)c1cc(F)ccc1S2 [Compound 1310] | 1 | 89 | –
24 | O=C(NCc1cnco1)c1ccc2c(c1)NC(=O)c1cc(F)ccc1S2 [Compound 1311] | 8 | 95 | –
25 | O=C(NCCc1cncnc1)c1ccc2c(c1)NC(=O)c1cc(F)ccc1S2 [Compound 1312] | 5 | 83 | –

Row | Compound | activity at 10 µM [1] [%] | AD38 Viability Normalized Result (CPAM/DMSO %) at 10 μM [2] [%] | AD38 Viral Load (CpAM/DMSO %) at 10 μM [1] [%]
26 | CC(C)(C)c1ccc([C@@H](CO)NC(=O)c2ccc3c(c2)NC(=O)c2cc(F)ccc2S3)cc1 [Compound 1313] | 17 | 108 | –
27 | O=C(NCc1ccc(-c2cncnc2)cc1)c1ccc2c(c1)NC(=O)c1cc(F)ccc1S2 [Compound 1314] | 69 | 101 | –
28 | O=C(NCc1cnc(-c2ccccc2)nc1)c1ccc2c(c1)NC(=O)c1cc(F)ccc1S2 [Compound 1315] | 4 | 103 | –
29 | O=C(Nc1ccc(F)cc1)c1ccc2c(c1)NC(=O)c1cc(F)ccc1S2 [Compound 1316] | 32 | 89 | –
30 | O=C(Nc1cccc(F)c1)c1ccc2c(c1)NC(=O)c1cc(F)ccc1S2 [Compound 1317] | 50 | 95 | –
31 | O=C(Nc1ccc(F)cc1F)c1ccc2c(c1)NC(=O)c1cc(F)ccc1S2 [Compound 1318] | 14 | 70 | –
32 | O=C(Nc1ccccc1)c1ccc2c(c1)NC(=O)c1cc(F)ccc1S2 [Compound 1319] | 16 | 83 | –
33 | O=C(NCCc1ccc(-c2cncnc2)cc1)c1ccc2c(c1)NC(=O)c1cc(F)ccc1S2 [Compound 1320] | 43 | 93 | –
34 | O=C(Nc1ccc(Cl)cc1)c1ccc2c(c1)NC(=O)c1cc(F)ccc1S2 [Compound 1321] | 15 | 74 | –
35 | O=C(Nc1ccccc1F)c1ccc2c(c1)NC(=O)c1cc(F)ccc1S2 [Compound 1322] | 28 | 94 | –
36 | O=C(Nc1ccc(F)cc1Cl)c1ccc2c(c1)NC(=O)c1cc(F)ccc1S2 [Compound 1323] | 96 | 60 | –
37 | O=C(Nc1cc(F)c(F)c(F)c1)c1ccc2c(c1)NC(=O)c1cc(F)ccc1S2 [Compound 1324] | 10 | 24 | –
38 | O=C(Nc1ccc2ncsc2c1)c1ccc2c(c1)NC(=O)c1cc(F)ccc1S2 [Compound 1325] | 26 | 90 | –
39 | O=C(Nc1ccc(-c2ccccc2)cc1)c1ccc2c(c1)NC(=O)c1cc(F)ccc1S2 [Compound 1326] | 23 | 95 | –
40 | O=C(Nc1cncnc1)c1ccc2c(c1)NC(=O)c1cc(F)ccc1S2 [Compound 1328] | 54 | 105 | –
41 | O=C(Nc1nccs1)c1ccc2c(c1)NC(=O)c1cc(F)ccc1S2 [Compound 1329] | 62 | 109 | –
42 | O=C(Nc1ccncc1)c1ccc2c(c1)NC(=O)c1cc(F)ccc1S2 [Compound 1330] | 41 | 109 | –
43 | O=C(Nc1ccc2ncoc2c1)c1ccc2c(c1)NC(=O)c1cc(F)ccc1S2 [Compound 1331] | 43 | 88 | –
44 | O=C(Nc1nc2ccc(F)cc2s1)c1ccc2c(c1)NC(=O)c1cc(F)ccc1S2 [Compound 1332] | 70 | 103 | –
45 | O=C(Nc1cccc(-c2ccccc2)c1)c1ccc2c(c1)NC(=O)c1cc(F)ccc1S2 [Compound 1333] | 20 | 73 | –
46 | O=C(Nc1ccc(Cl)cc1F)c1ccc2c(c1)NC(=O)c1cc(F)ccc1S2 [Compound 1334] | 33 | 83 | –
47 | O=C(Nc1cncs1)c1ccc2c(c1)NC(=O)c1cc(F)ccc1S2 [Compound 1335] | 87 | 104 | –
48 | O=C(Nc1ccc(F)cn1)c1ccc2c(c1)NC(=O)c1cc(F)ccc1S2 [Compound 1336] | 70 | 90 | –
49 | O=C(Nc1cncc(F)c1)c1ccc2c(c1)NC(=O)c1cc(F)ccc1S2 [Compound 1337] | 77 | 91 | –
